Legend:
PI3K-delta = target: T1, PI3K-delta (Homo sapiens, UniProt O00329); experiment: HTRF PI3K biochemical assay, delta isoform; details: form screened (neutral or TFA salt) given, read-out: PI3Kdelta IC50
T1 construct: purchased Upstate; Millipore 14-604

PI3K-alpha = target: T2, PI3K-alpha (Homo sapiens, UniProt P42336); experiment: HTRF PI3K biochemical assay, alpha isoform; details: ratio PI3K-alpha IC50 value / PI3K-delta IC50 value
T2 construct: purchased Upstate; Millipore 14-602
T2 sequence (P42336 whole entry, canonical isoform): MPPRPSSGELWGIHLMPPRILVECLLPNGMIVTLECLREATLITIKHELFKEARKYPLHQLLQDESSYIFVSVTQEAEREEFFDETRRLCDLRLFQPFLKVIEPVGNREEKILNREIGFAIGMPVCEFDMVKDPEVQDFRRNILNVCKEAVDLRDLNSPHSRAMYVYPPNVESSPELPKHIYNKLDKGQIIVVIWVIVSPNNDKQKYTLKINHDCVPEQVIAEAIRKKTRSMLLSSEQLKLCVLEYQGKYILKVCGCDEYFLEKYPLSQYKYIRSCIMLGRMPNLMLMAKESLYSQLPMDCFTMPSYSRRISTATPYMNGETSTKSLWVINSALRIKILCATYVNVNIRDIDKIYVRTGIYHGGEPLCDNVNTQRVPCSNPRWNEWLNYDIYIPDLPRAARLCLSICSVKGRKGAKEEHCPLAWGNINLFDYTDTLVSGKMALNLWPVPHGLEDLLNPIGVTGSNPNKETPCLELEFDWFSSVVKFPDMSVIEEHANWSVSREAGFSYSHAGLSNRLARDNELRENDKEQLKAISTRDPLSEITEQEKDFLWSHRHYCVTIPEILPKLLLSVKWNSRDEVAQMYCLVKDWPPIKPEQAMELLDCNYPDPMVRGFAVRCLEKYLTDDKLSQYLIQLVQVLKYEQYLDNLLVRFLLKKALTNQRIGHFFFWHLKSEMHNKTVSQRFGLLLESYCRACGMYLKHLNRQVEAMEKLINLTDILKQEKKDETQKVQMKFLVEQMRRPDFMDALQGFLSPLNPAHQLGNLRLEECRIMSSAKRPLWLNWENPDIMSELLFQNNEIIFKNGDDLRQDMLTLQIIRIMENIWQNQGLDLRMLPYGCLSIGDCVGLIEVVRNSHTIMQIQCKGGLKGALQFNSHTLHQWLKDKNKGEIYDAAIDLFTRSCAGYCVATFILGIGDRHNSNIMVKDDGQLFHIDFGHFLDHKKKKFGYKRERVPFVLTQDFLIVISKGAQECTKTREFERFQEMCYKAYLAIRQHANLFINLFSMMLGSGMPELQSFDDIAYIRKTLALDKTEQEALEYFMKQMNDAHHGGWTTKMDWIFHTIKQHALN
T2 sequence (P27986 whole entry partner, canonical isoform): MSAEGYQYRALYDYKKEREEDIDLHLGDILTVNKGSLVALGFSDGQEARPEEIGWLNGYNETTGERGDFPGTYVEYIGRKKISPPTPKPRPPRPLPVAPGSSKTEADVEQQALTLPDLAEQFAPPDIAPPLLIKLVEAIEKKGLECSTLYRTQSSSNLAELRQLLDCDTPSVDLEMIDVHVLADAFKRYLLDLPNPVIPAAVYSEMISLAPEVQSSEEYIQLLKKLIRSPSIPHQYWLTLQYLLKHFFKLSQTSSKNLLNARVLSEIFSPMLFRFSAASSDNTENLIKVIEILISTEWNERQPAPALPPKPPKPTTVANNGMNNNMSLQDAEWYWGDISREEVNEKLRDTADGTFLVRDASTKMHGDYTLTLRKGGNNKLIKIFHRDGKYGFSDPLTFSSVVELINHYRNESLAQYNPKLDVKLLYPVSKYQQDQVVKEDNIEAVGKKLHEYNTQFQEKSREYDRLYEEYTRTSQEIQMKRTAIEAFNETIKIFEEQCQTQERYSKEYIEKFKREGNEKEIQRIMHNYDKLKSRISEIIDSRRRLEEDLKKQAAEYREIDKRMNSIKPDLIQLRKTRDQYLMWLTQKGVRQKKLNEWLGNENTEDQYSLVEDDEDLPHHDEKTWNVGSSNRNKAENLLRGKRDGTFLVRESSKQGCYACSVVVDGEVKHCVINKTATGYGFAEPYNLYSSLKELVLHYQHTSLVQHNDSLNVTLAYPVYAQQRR

T1 sequence (O00329 whole entry, canonical isoform): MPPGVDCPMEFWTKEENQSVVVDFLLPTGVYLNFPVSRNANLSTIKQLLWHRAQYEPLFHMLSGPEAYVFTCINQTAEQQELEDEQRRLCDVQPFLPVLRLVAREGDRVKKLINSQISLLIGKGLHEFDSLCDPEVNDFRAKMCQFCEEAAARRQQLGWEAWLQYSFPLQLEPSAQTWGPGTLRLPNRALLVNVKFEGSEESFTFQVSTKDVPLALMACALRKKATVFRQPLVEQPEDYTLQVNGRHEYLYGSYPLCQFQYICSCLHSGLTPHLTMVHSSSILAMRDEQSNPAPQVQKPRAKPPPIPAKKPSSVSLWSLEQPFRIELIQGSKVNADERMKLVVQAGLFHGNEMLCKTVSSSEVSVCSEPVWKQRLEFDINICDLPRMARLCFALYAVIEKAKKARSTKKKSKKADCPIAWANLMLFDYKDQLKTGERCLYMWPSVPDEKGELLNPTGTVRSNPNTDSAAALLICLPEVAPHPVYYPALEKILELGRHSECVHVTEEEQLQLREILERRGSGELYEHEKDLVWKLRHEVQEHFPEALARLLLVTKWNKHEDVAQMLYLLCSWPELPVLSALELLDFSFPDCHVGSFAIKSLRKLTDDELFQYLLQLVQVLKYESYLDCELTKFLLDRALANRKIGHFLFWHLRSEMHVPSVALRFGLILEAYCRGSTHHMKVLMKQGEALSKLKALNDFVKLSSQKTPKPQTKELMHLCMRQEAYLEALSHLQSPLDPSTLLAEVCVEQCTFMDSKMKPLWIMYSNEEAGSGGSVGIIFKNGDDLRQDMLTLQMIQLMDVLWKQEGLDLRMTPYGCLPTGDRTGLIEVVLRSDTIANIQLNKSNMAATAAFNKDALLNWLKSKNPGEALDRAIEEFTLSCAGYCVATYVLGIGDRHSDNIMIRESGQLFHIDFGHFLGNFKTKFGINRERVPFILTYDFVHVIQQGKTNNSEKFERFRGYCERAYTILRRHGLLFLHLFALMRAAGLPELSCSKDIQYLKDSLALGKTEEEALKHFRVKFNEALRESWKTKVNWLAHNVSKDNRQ
T1 sequence (P27986 whole entry partner, canonical isoform): as the sequence (P27986 whole entry partner, canonical isoform) above

Row | Structure (SMILES) | IC50 (PI3K-delta) [nM] | Selectivity versus PI3Kalpha (PI3K-alpha)
1 | CCn1c(-c2ccc(C(F)(F)F)nc2)nc2c(N[C@H]3CCN(C(=O)[C@H]4C[C@H](OC)C4)C3)ncnc21 [Compound 2-106, 9-ethyl-N-{(3S)-1-[(trans-3-methoxycyclobutyl)carbonyl]pyrrolidin-3-yl}-8-[6-(trifluoromethyl)pyridin-3-yl]-9H-purin-6-amine] | 1.2 | >10
2 | Cc1ncc(-c2nc3c(N[C@H]4CCN(C(=O)C5CC5)C4)ncnc3n2C)cn1 [Compound 3-23, N-[(3S)-1-(cyclopropylcarbonyl)pyrrolidin-3-yl]-9-methyl-8-(2-methylpyrimidin-5-yl)-9H-purin-6-amine] | 5.4 | >10
3 | CCC(=O)N1CC[C@H](Nc2ncnc3c2nc(-c2cc(O)cc(F)c2)n3C)C1 [Compound 3-9, 3-fluoro-5-(9-methyl-6-{[(3S)-1-propanoylpyrrolidin-3-yl]amino}-9H-purin-8-yl)phenol] | 1.3 | >10
4 | CCC(=O)N1CC[C@H](Nc2ncnc3c2nc(-c2cnc(OC)c(C)c2)n3CC)C1 [Compound 2-9, (S)-1-(3-((9-ethyl-8-(6-methoxy-5-methylpyridin-3-yl)-9H-purin-6-yl)amino)pyrrolidin-1-yl)propan-1-one] | < 1 | >10
5 | CCn1c(-c2cnc(C)nc2)nc2c(N[C@H]3CCN(C(=O)c4cocn4)C3)ncnc21 [Compound 2-72, 9-ethyl-8-(2-methylpyrimidin-5-yl)-N-[(3S)-1-(1,3-oxazol-4-ylcarbonyl)pyrrolidin-3-yl]-9H-purin-6-amine] | 2.8 | >10
6 | CCn1ncc(-c2nc3c(NC4CN(C(=O)C5CCOCC5)C4)ncnc3n2C)c1C [Compound 2-48, 8-(1-ethyl-5-methyl-1H-pyrazol-4-yl)-9-methyl-N-[1-(tetrahydro-2H-pyran-4-ylcarbonyl)azetidin-3-yl]-9H-purin-6-amine] | 16 | >10
7 | CCn1c(-c2cnc(C)nc2)nc2c(N[C@H]3CCN(C(=O)[C@H]4CC[C@@H](O)CC4)C3)ncnc21 [Compound 2-98, cis-4-{[(3S)-3-{[9-ethyl-8-(2-methylpyrimidin-5-yl)-9H-purin-6-yl]amino}pyrrolidin-1-yl]carbonyl}cyclohexanol] | 2.8 | >10
8 | CCn1c(-c2cnc(OC)c(C)c2)nc2c(N(C)[C@H]3CCN(C(=O)OC(C)(C)C)C3)ncnc21 [Compound 1-4, (S)-tert-butyl 3-((9-ethyl-8-(6-methoxy-5-methylpyridin-3-yl)-9H-purin-6-yl)(methyl)amino)pyrrolidine-1-carboxylate] | 1.7 | >10
9 | CCC(=O)N1CC[C@H](Nc2ncnc3c2nc(-c2cnc(OC)c(C(F)(F)F)c2)n3C)C1 [Compound 3-7, (S)-1-(3-((8-(6-methoxy-5-(trifluoromethyl)pyridin-3-yl)-9-methyl-9H-purin-6-yl)amino)pyrrolidin-1-yl)propan-1-one] | 2.2 | >10
10 | CCn1c(-c2ccc(C(F)(F)F)nc2)nc2c(N[C@H]3CCN(c4ccccn4)C3)ncnc21 [Compound 4-4, 9-ethyl-N-[(3S)-1-pyridin-2-ylpyrrolidin-3-yl]-8-[6-(trifluoromethyl)pyridin-3-yl]-9H-purin-6-amine] | < 1 | >10
11 | CCn1c(-c2cnc(OC)c(F)c2)nc2c(N[C@H]3CCN(C(=O)C4CC(F)(F)C4)C3)ncnc21 [Compound 3A-7, N-{(3S)-1-[(3,3-difluorocyclobutyl)carbonyl]pyrrolidin-3-yl}-9-ethyl-8-(5-fluoro-6-methoxypyridin-3-yl)-9H-purin-6-amine] | < 1 | >10
12 | CCn1c(-c2cncc(-c3ccccc3)c2)nc2c(N[C@H]3CCN(C(=O)C4CC4)C3)ncnc21 [Compound 3-37, N-[(3S)-1-(cyclopropylcarbonyl)pyrrolidin-3-yl]-9-ethyl-8-(5-phenylpyridin-3-yl)-9H-purin-6-amine] | 5.4 | >10
13 | CCn1c(-c2cnc(C)nc2)nc2c(N[C@H]3CCN(C(=O)C4CCC4)C3)ncnc21 [Compound 2-22, (S)-cyclobutyl(3-((9-ethyl-8-(2-methylpyrimidin-5-yl)-9H-purin-6-yl)amino)pyrrolidin-1-yl)methanone] | 1.7 | >10
14 | CCn1c(-c2ccc(C(F)(F)F)nc2)nc2c(N[C@H]3CCN(C(=O)C4CC4)C3)ncnc21 [Compound 2-49, N-[(3S)-1-(cyclopropylcarbonyl)pyrrolidin-3-yl]-9-ethyl-8-[6-(trifluoromethyl)pyridin-3-yl]-9H-purin-6-amine] | 1 | >10
15 | CCn1c(-c2cnc(C)nc2)nc2c(N[C@H]3CCN(C(=O)[C@@H]4CCCN4C)C3)ncnc21 [Compound 2-43, 9-ethyl-N-[(3S)-1-(1-methyl-L-prolyl)pyrrolidin-3-yl]-8-(2-methylpyrimidin-5-yl)-9H-purin-6-amine] | 16 | >10
16 | CCC(=O)N1CC[C@H](Nc2ncnc3c2nc(-c2cnc(C(C)(C)C)s2)n3CC)C1 [Compound 2-10, (S)-1-(3-((8-(2-(tert-butyl)thiazol-5-yl)-9-ethyl-9H-purin-6-yl)amino)pyrrolidin-1-yl)propan-1-one] | < 1 | >10
17 | CCn1c(-c2cnc(C)nc2)nc2c(NC3CCN(C(=O)c4cnco4)C3)ncnc21 (stereo in doubt) [Compound 2-76, (R)-(3-((9-ethyl-8-(2-methylpyrimidin-5-yl)-9H-purin-6-yl)amino)pyrrolidin-1-yl)(oxazol-5-yl)methanone] | 3.1 | >10
18 | CCn1ncc(-c2nc3c(N[C@H]4CCN(C(=O)C5CCOCC5)C4)ncnc3n2C)c1C [Compound 2-4, 8-(1-ethyl-5-methyl-1H-pyrazol-4-yl)-9-methyl-N-[(3S)-1-(tetrahydro-2H-pyran-4-ylcarbonyl)pyrrolidin-3-yl]-9H-purin-6-amine] | < 1 | >10
19 | CCn1c(-c2cnc(C)nc2)nc2c(N[C@H]3CCN(C(=O)C4CCCO4)C3)ncnc21 (single isomer, unassigned) [Compound 2-33, 9-ethyl-8-(2-methylpyrimidin-5-yl)-N-[(3S)-1-((R or S)-tetrahydrofuran-2-ylcarbonyl)pyrrolidin-3-yl]-9H-purin-6-amine] | – | >10
20 | CCn1c(-c2ccc(C(F)(F)F)nc2)nc2c(N[C@H]3CCN(C(=O)C4CCOC4)C3)ncnc21 (single isomer, unassigned) [Compound 2-102, 9-ethyl-N-{(3S)-1-[(3S or 3R)-tetrahydrofuran-3-ylcarbonyl]pyrrolidin-3-yl}-8-[6-(trifluoromethyl)pyridin-3-yl]-9H-purin-6-amine] | – | >10
21 | CCn1ncc(-c2nc3c(N[C@@H]4CCN(C(=O)c5nc(C)oc5C)C4)ncnc3n2C)c1C [Compound 2-2, N-{(3R)-1-[(2,5-dimethyl-1,3-oxazol-4-yl)carbonyl]pyrrolidin-3-yl}-8-(1-ethyl-5-methyl-1H-pyrazol-4-yl)-9-methyl-9H-purin-6-amine] | 52 | –

The next lines start with the values.

Row | IC50 (PI3K-delta) [nM] | Selectivity versus PI3Kalpha (PI3K-alpha) | Structure (SMILES)
22 | 30 | >10 | CCNC(=O)N1CCC[C@H](Nc2ncnc3c2nc(-c2cnn(CC)c2C)n3C)C1 [Compound 12-1, (3S)-N-ethyl-3-{[8-(1-ethyl-5-methyl-1H-pyrazol-4-yl)-9-methyl-9H-purin-6-yl]amino}piperidine-1-carboxamide]
23 | 3.3 | >10 | CCn1c(C(=O)NCC(F)(F)F)nc2c(N[C@H]3CCN(C(=O)C4CCC4)C3)ncnc21 [Compound 6-9, 6-{[(3S)-1-(cyclobutylcarbonyl)pyrrolidin-3-yl]amino}-9-ethyl-N-(2,2,2-trifluoroethyl)-9H-purine-8-carboxamide]
24 | 8.9 | >10 | CCn1c(-c2cnc(C)nc2)nc2c(N[C@H]3CCN(C(=O)NCCOC)C3)ncnc21 [Compound 12-2, (3S)-3-{[9-ethyl-8-(2-methylpyrimidin-5-yl)-9H-purin-6-yl]amino}-N-(2-methoxyethyl)pyrrolidine-1-carboxamide]
25 | 10 | >10 | C=C(C)CN1CC(Nc2ncnc3c2nc(-c2cnn(CC)c2C)n3C)CC1=O (racemic) [Compound 14-2, 4(S and R)-{[8-(1-ethyl-5-methyl-1H-pyrazol-4-yl)-9-methyl-9H-purin-6-yl]amino}-1-(2-methylprop-2-en-1-yl)pyrrolidin-2-one]
26 | 9.7 | >10 | CCn1c(-c2cnc(C)nc2)nc2c(N[C@H]3CCN(C(=O)NCC(F)(F)F)C3)ncnc21 [Compound 12-8, (3S)-3-{[9-ethyl-8-(2-methylpyrimidin-5-yl)-9H-purin-6-yl]amino}-N-(2,2,2-trifluoroethyl)pyrrolidine-1-carboxamide]
27 | 15 | >10 | CCn1c(C(=O)Nc2ccccc2)nc2c(N[C@H]3CCN(C(=O)C4CC4)C3)ncnc21 [Compound 6-18, 6-{[(3S)-1-(cyclopropylcarbonyl)pyrrolidin-3-yl]amino}-9-ethyl-N-phenyl-9H-purine-8-carboxamide]
28 | 1.2 | >10 | CCn1c(-c2cnc(C)nc2)nc2c(N[C@H]3CCN(C(=O)N4CCCCC4)C3)ncnc21 [Compound 12-5, 9-ethyl-8-(2-methylpyrimidin-5-yl)-N-[(3S)-1-(piperidin-1-ylcarbonyl)pyrrolidin-3-yl]-9H-purin-6-amine]
29 | 100 | >10 | CCn1c(N(C)CC(C)C)nc2c(N[C@H]3CCN(C(=O)C4CC4)C3)ncnc21 [Compound 8-4, cyclopropyl[(3S)-3-({9-ethyl-8-[methyl(2-methylpropyl)amino]-9H-purin-6-yl}amino)pyrrolidin-1-yl]methanone]

From patent US9938281B2 (Merck Sharp & Dohme Corp., priority 2012, dated 2018)
